Data published in US6531610B1 (Abbott Laboratories, priority 1989, dated 2003).

These molecules were tested on HIV-13B in MT4 cells (assay: Antiviral activity: inhibition of the cytopathic effect of HIV in MT4 cells). Settings: Human immunodeficiency virus 1, MT4.
Assay type: cell-based, HIV-1

Row | Compound | IC50 [nM]
1 | CC(C)CN(Cc1csc(C(C)C)n1)C(=O)N[C@@H](C)C(=O)N[C@@H](Cc1ccccc1)C[C@H](O)[C@H](Cc1ccccc1)NC(=O)OCc1cncs1 [Example 55] | 140 to 220

Same assay, conditions: Human immunodeficiency virus 1, MT4; read-out: IC50

Row | Compound | IC50 [nM]
2 | Cc1ncc(COC(=O)N[C@@H](Cc2ccccc2)[C@@H](O)C[C@H](Cc2ccccc2)NC(=O)[C@@H](NC(=O)N(C)Cc2csc(C(C)C)n2)C(C)C)s1 [Example 28, (2S,3S,5S)-5-(N-(N-((N-Methyl-N-((2-isopropyl-4-thiazolyl)methyl)amino)carbonyl)valinyl)amino)-2-(N-((2-methyl-5-thiazolyl)methoxycarbonyl)amino)-1,6-diphenyl-3-hydroxyhexane] | 110 to 120
3 | CCc1nc(CN(C)C(=O)N[C@H](C(=O)N[C@@H](Cc2ccccc2)C[C@H](O)[C@H](Cc2ccccc2)NC(=O)OCc2cncs2)C(C)C)cs1 [Example 53, (2S,3S,5S)-5-(N-(N-((N-Methyl-N-((2-ethyl-4-thiazolyl)methyl)amino)carbonyl)valinyl)amino)-2-(N-((5-thiazolyl)methoxycarbonyl)amino)-1,6-diphenyl-3-hydroxyhexane] | 32 to 73
4 | CC(C)c1nc(COC(=O)N[C@H](C(=O)N[C@@H](Cc2ccccc2)C[C@H](O)[C@H](Cc2ccccc2)NC(=O)OCc2cncs2)C(C)C)cs1 [Example 5, (2S,3S,5S)-5-(N-(N-((2-Isopropyl-4-thiazolyl)methoxycarbonyl)valinyl)amino)-2-(N-((5-thiazolyl)methoxycarbonyl)amino)-1,6-diphenyl-3-hydroxyhexane] | 3 to 9
5 | CC(C)c1nc(CN(C(=O)N[C@@H](C)C(=O)N[C@@H](Cc2ccccc2)C[C@H](O)[C@H](Cc2ccccc2)NC(=O)OCc2cncs2)C2CC2)cs1 [Example 15, (2S,3S,5S)-5-(N-(N-((N-Cyclopropyl-N-((2-isopropyl-4-thiazolyl)methyl)amino)carbonyl)alaninyl)amino)-2-(N-((5-thiazolyl)methoxycarbonyl)amino)-1,6-diphenyl-3-hydroxyhexane] | 430 to 670
6 | CCN(Cc1csc(C(C)C)n1)C(=O)N[C@H](C(=O)N[C@@H](Cc1ccccc1)C[C@H](O)[C@H](Cc1ccccc1)NC(=O)OCc1cncs1)C(C)C [Example 4, (2S,3S,5S)-5-(N-(N-((N-Ethyl-N-((2-isopropyl-4-thiazolyl)methyl)amino)carbonyl)valinyl)amino)-2-(N-((5-thiazolyl)methoxycarbonyl)amino)-1,6-diphenyl-3-hydroxyhexane] | 170 to 320
7 | CCc1nc(CN(C)C(=O)N[C@H](C(=O)N[C@@H](Cc2ccccc2)C[C@H](O)[C@H](Cc2ccccc2)NC(=O)OCc2cncs2)C(C)C)co1 [Example 41, (2S,3S,5S)-5-(N-(N-((N-Methyl-N-((2-ethyl-4-oxazolyl)methyl)amino)carbonyl)valinyl)amino)-2-(N-((5-thiazolyl)methoxycarbonyl)amino)-1,6-diphenyl-3-hydroxyhexane] | 15 to 20
8 | CC(C)c1nc(CCOC(=O)N[C@H](C(=O)N[C@@H](Cc2ccccc2)C[C@H](O)[C@H](Cc2ccccc2)NC(=O)OCc2cncs2)C(C)C)cs1 [Example 47, (2S,3S,5S)-5-(N-(N-((2-(2-Isopropyl-4-thiazolyl)ethoxy)carbonyl)valinyl)amino)-2-(N-((5-thiazolyl)methoxycarbonyl)amino)-1,6-diphenyl-3-hydroxyhexane] | 9 to 24
9 | CC(C)c1nc(CN(C)C(=O)N[C@@H](C)C(=O)N[C@@H](Cc2ccccc2)C[C@H](O)[C@H](Cc2ccccc2)NC(=O)OCc2ccno2)co1 [Example 57, (2S,3S,5S)-5-(N-(N-((N-Methyl-N-((2-isopropyl-4-oxazolyl)methyl)amino)carbonyl)-L-alaninyl)amino)-2-(N-((5-isoxazolyl)methoxycarbonyl)amino)-1,6-diphenyl-3-hydroxyhexane] | 35 to 48
